In US6861420B2, “N-substituted 1,2,4,5-tetrahydro-1H-benzo[d]azepine compounds” (Pharmacia & Upjohn Company, priority 2001, dated 2005):

Row | melting point | Compound
1 | 171 to 173 °C | Cc1ncccc1Oc1ccc(NC(=O)N2CCc3ccccc3CC2)cn1 [Example 1, N-{6-[(2-methylpyridin-3-yl)oxy]pyridin-3-yl}-1,2,4,5-tetrahydro-3H-3-benzazepine-3-carboxamide]
2 | 135 to 137 °C | O=C(Nc1ccc(Oc2ccc(Cl)cc2)nc1)N1CCc2ccccc2CC1 [Example 10, N-[6-(4-Chlorophenoxy)pyridin-3-yl]-1,2,4,5-tetrahydro-3H-3-benzazepine-3-carboxamide]
3 | 170 to 172 °C | O=C(Nc1ccc(Oc2ccccc2F)nc1)N1CCc2ccccc2CC1 [Example 11, N-[6-(2-Fluorophenoxy)pyridin-3-yl]-1,2,4,5-tetrahydro-3H-3-benzazepine-3-carboxamide]
4 | 149 to 152 °C | CC(C)Oc1ccccc1Oc1ccc(NC(=O)N2CCc3ccccc3CC2)cn1 [Example 12, N-[6-(2-isopropoxyphenoxy)pyridin-3-yl]-1,2,4,5-tetrahydro-3H-3-benzazepine-3-carboxamide]
5 | 151 to 153 °C | Cc1cc(Cl)ccc1Oc1ccc(NC(=O)N2CCc3ccccc3CC2)cn1 [Example 13, N-[6-(2-Methyl-4-chlorophenoxy)pyridin-3-yl]-1,2,4,5-tetrahydro-3H-3-benzazepine-3-carboxamide]
6 | 154 to 155 °C | O=C(Nc1ccc(Oc2ccc(Cl)cc2Cl)nc1)N1CCc2ccccc2CC1 [Example 15, N-[6-(2,4-Dichlorophenoxy)pyridin-3-yl]-1,2,4,5-tetrahydro-3H-3-benzazepine-3-carboxamide]

Continued, compound first:

Row | Compound | melting point
7 | O=C(NC1CN2CCC1CC2)N1CCc2ccccc2CC1 (stereo not shown) | > 120 °C (dec.)
8 | O=C(N[C@@H]1CN2CCC1CC2)N1CCc2ccccc2CC1 | 128 to 132 °C
9 | Cc1ncccc1Oc1ccc(NC(=O)N2CCc3ccc(-n4c(C)ccc4C)cc3CC2)cn1 [Example 2, 7-(2,5-Dimethyl-1H-pyrrol-1-yl)-N-{6-[(2-methylpyridin-3-yl)oxy]pyridin-3-yl}-1,2,4,5-tetrahydro-3H-3-benzazepine-3-carboxamide] | 101 °C (dec.)
10 | O=C(Nc1cccnc1)N1CCc2ccccc2CC1 [Example 5, 1,2,4,5-Tetrahydro-benzo[d]azepine-3-carboxylic acid pyridin-3-ylamide] | 144 to 146 °C
11 | O=C(Nc1cccnc1Cl)N1CCc2ccccc2CC1 [Example 6, N-[2-Chloropyridin-3-yl]-1,2,4,5-tetrahydro-3H-3-benzazepine-3-carboxamide] | 120 to 122 °C
12 | O=C(Nc1ccc(Cl)nc1)N1CCc2ccccc2CC1 [Example 7, N-(6-chloropyridin-3-yl)-1,2,4,5-tetrahydro-3H-3-benzazepine-3-carboxamide] | 170 to 172 °C
13 | COc1ccc(Oc2ccc(NC(=O)N3CCc4ccccc4CC3)cn2)cc1 [Example 9, N-[6-(4-Methoxyphenoxy)pyridin-3-yl]-1,2,4,5-tetrahydro-3H-3-benzazepine-3-carboxamide] | 156 to 157 °C
14 | Cc1cc(Oc2ccc(NC(=O)N3CCc4ccccc4CC3)cn2)ccc1Cl [Example 14, N-[6-(3-Methyl-4-chlorophenoxy)pyridin-3-yl]-1,2,4,5-tetrahydro-3H-3-benzazepine-3-carboxamide] | 171 to 173 °C
15 | Cc1cc(Oc2ccc(NC(=O)N3CCc4ccccc4CC3)cn2)cc(C)c1Cl [Example 16, N-[6-(4-Chloro-3,5-dimethylphenoxy)pyridin-3-yl]-1,2,4,5-tetrahydro-3H-3-benzazepine-3-carboxamide] | 208 to 209 °C
16 | O=C(NC1CCCNC1)N1CCc2ccccc2CC1 (stereo not shown) [Example 17, N-Piperidin-3-yl-1,2,4,5-tetrahydro-3H-3-benzazepine-3-carboxamide] | 214 to 216 °C
